Experimental data: patent US9561201B2, “Therapeutic compounds” (Fibrotech Therapeutics Pty Ltd, priority 2006, dated 2017)

How the values were obtained:
rat mesangial cell line [1] = experiment: TGF-β stimulated 3H-proline incorporation in mesangial cells (Example 5); format: cell-based; settings: for inhibition at 10 µM / inhibition at 30 µM / inhibition at 100 µM / inhibition at 3 µM / inhibition at 50 µM: Rattus norvegicus, Mesangial cell, read-out: Mesangial Cell Assay TGF-β % reduction of TGF-β stimulation_proline inc.; for inhibition at 10 µM / inhibition at 30 µM / inhibition at 100 µM / inhibition at 3 µM / inhibition at 50 µM / Mesangial Cell Assay TGF-β % reduction of TGF-β stimulation_proline inc.: 5 ng/mL TGF-β1, 44 h; for Collagen synthesis: inhibition ranked against tranilast (T) or FT11
Protocol: (§1) A well-characterized cloned rat mesangial cell line (gift of D Nikolic-Patterson) is cultured in DMEM with FBS, 100 U/mL penicillin, and 100 ug/mL streptomycin in a humidified 5% CO2 atmosphere at 37° C. Cells are plated into 24-well culture dishes in DMEM/10% FBS at low density and allowed to adhere overnight. Cells are used between passages 20 and 40. The subconfluent cells are starved overnight in DMEM/0.1% FBS containing 150 uM L-ascorbic acid, prior to 4 hours of pre-treatment with or without tranilast or the FT compounds, followed by the addition of 5 ng/mL rhTGF-β11 (R&D Systems) and 1 uCi/mL of L-(2,3,4,5-^3H)-proline. Control wells have the compounds but no TGF-β1 added. Cells are incubated for a further 44 hours during which time their appearance is visually monitored. The cells are then washed three times in ice-cold PBS, twice in ice cold 10% TCA and solubilized in 750 uL 1M NaOH for 45 minutes at 37° C. or overnight at 4° C. A 500 uL aliquot is neutralized with 500 uL 1M HCl and 10 mL scintillation fluid (Instagel Plus-Perkin-Elmer) added. Counts are performed on a beta counter.
To normalize the proline incorporation counts to take into account the proliferative effects of TGF-β1, a BioRad protein assay is performed on a 100-150 uL aliquot of the remaining solubilized cells. The sample is neutralized with an equal amount of 1M HCl prior to the assay. The BSA standards used to construct the standard curve have the same amount of 1M NaOH and 1M HCl added as is present in the samples for assay.
Proline incorporation is expressed as cpm/ug protein. In order to compare inter-assay results, the incorporation is expressed as percentage reduction of TGF stimulated proline incorporation, where TGF alone gives 0% reduction and the zero control gives 100% reduction.

rat mesangial cell line [2] = experiment: Effect on mesangial cell appearance (visual monitoring during proline assay); format: cell-based
Protocol: as §1
Compounds in Bold have Minimal Effect on Cell Appearance and Viability

Row | Effect on mesangial cell appearance (rat mesangial cell line [2]; @ 100 μM) | melting point [°C] | SMILES | inhibition at 10 µM (rat mesangial cell line [1]; @ 10 μM) [%] | inhibition at 30 µM (rat mesangial cell line [1]; @ 30 μM) [%] | Collagen synthesis (rat mesangial cell line [1]) | further results
1 | sparse @ |  | COc1ccc(/C=C/C(=O)Nc2ccccc2C(N)=O)cc1OC [Analogue 12, (E)-2-[[3-(3,4-Dimethoxyphenyl)-1-oxo-2-propenyl]amino]benzamide] | ~13 | 20 | <FT11 | inhibition at 100 µM (rat mesangial cell line [1]): 36%
2 | stress @ | 170 to 171 | CC#CCOc1cc(/C=C/C(=O)Nc2ccccc2C(=O)O)ccc1OC [Analogue 23, (E)-2-{[3-(3-(But-2-ynyloxy)-4-methoxyphenyl)-1-oxo-2-propenyl]amino}benzoic acid] | 30 to 60 | 70 to 80 | >=FT11 | inhibition at 3 µM (rat mesangial cell line [1]): ~12%; inhibition at 100 µM (rat mesangial cell line [1]): ~80%
3 |  | 112 to 114 | COc1cc(/C=C/C(=O)Nc2ccccc2C(=O)O)ccc1OCC(=O)C12CC3CC(CC(C3)C1)C2 [Analogue 47] |  |  |  | 
4 |  | 215 to 216 | COc1ccc(/C=C/C(=O)Nc2ccccc2C(=O)O)cc1O [Analogue 7, (E)-2-[[3-(3-Hydroxy-4-methoxyphenyl)-1-oxo-2-propenyl]amino]benzoic acid] | ~50 |  | > or =T | inhibition at 50 µM (rat mesangial cell line [1]): 80%; Effect on mesangial cell appearance (rat mesangial cell line [2]; no concentration stated): stressed
5 | Sick @ |  | COc1cc(/C=C/C(=O)Nc2ccccc2C(=O)O)ccc1OCc1ccccc1 [Analogue 43, (E)-2-[[3-(4-Benzyloxy-3-methoxyphenyl)-1-oxo-2-propenyl]amino]benzoic acid] | 48 | 70 |  | Effect on mesangial cell appearance (rat mesangial cell line [2]; @ 30 μM): Sick @
6 |  | 227 to 229 | COc1ccc(/C=C/C(=O)Nc2ccccc2C(=O)O)cc1OCc1c(C)noc1C [Analogue 50, (E)-2-[[3-((3-(3,5-Dimethylisoxazol-4-yl)methoxy)-4-methoxyphenyl)-1-oxo-2-propenyl]amino]benzoic acid] |  |  |  | 
7 |  |  | COc1cc(/C=C/C(=O)Nc2ccccc2C(=O)O)ccc1OCc1ccc2ccccc2c1 [Analogue 44, (E)-2-[[3-(3-Methoxy-4-(naphth-2-ylmethoxy)phenyl)-1-oxo-2-propenyl]amino]benzoic acid] |  |  | Toxic | Effect on mesangial cell appearance (rat mesangial cell line [2]; @ all concentrations): Cells damaged @
8 |  | 183 to 184 | COc1cccc(/C=C/C(=O)Nc2ccccc2C(=O)O)c1 [Analogue 4, (E)-2-[[3-(3-Methoxyphenyl)-1-oxo-2-propenyl]amino]benzoic acid] |  |  | <<T | 
9 |  | 188 to 189 | O=C(/C=C/c1ccccc1)Nc1ccccc1C(=O)O [Analogue 2, (E)-2-[(1-Oxo-3-phenyl-2-propenyl)amino]benzoic acid] |  |  | <<T | 
10 |  | 195 to 201 | COc1cc(/C=C/C(=O)Nc2ccccc2C(=O)O)ccc1OCCN1CCOCC1 [Analogue 48, (E)-2-[[3-(3-Methoxy-4-(2-morpholinoethoxy)phenyl)-1-oxo-2-propenyl]amino]benzoic acid] |  |  |  | 
11 | stress @ |  | COc1ccc(/C=C/C(=O)Nc2ccccc2C(=O)O)cc1OC [Analogue 1, (E)-2-[[3-(3,4-Dimethoxyphenyl)-1-oxo-2-propenyl]amino]benzoic acid] |  | 20 to 50 | =T | inhibition at 100 µM (rat mesangial cell line [1]): 50 to 70%
12 |  | 236 to 239 | COc1ccc(/C=C/C(=O)Nc2cc(OC)c(OC)cc2C(=O)O)cc1OC [Analogue 9, (E)-2-[[3-(3,4-Dimethoxyphenyl)-1-oxo-2-propenyl]amino]-4,5-dimethoxybenzoic acid] |  |  | <<T | 
13 |  |  | COc1ccc(/C=C/C(=O)Nc2ccccc2C(=O)NCc2cn(CC(=O)Nc3ccccc3)nn2)cc1OC [Analogue 32, (E)-2-(3-(3,4-Dimethoxyphenyl)acrylamido)-N-((1-(2-oxo-2-(phenylamino)ethyl)-1H-1,2,3-triazol-4-yl)methyl)benzamide] | ~26 | 62 | Toxic | Effect on mesangial cell appearance (rat mesangial cell line [2]; no concentration stated): Dead
14 | sparse @ |  | COc1ccc(/C=C/C(=O)Nc2ccccc2)cc1OC [Analogue 13, (E)-[3-(3,4-Dimethoxyphenyl)-1-oxo-2-propenyl]aminobenzene] |  | ~20 | <FT11 | inhibition at 100 µM (rat mesangial cell line [1]): ~55%
15 |  | 207.5 to 208.5 | COc1cc(/C=C/C(=O)Nc2ccccc2C(=O)O)ccc1O [Analogue 6, (E)-2-[[3-(4-Hydroxy-3-methoxyphenyl)-1-oxo-2-propenyl]amino]benzoic acid] | 20 |  | <=T | inhibition at 50 µM (rat mesangial cell line [1]): 45%
16 |  | 202 to 205 | CCN(CC)Cc1cc(/C=C/C(=O)Nc2ccccc2C(=O)O)ccc1OC [Analogue 51, (E)-2-[[3-(3-((Diethylamino)methyl)-4-methoxyphenyl)-1-oxo-2-propenyl]amino]benzoic acid] |  |  |  | 
17 | dead |  | COc1cc(/C=C/C(=O)Nc2ccccc2C(=O)O)ccc1OCc1cn(CC(=O)Nc2ccccc2)nn1 [Analogue 20, (E)-2-[[3-(3-Methoxy-4-((1-(2-oxo-2-(phenylamino)ethyl)-1H-1,2,3-triazol-4-yl)methoxy)phenyl)-1-oxo-2-propenyl]amino]benzoic acid] | 30 | 50 | =FT11 | inhibition at 100 µM (rat mesangial cell line [1]): 90%
18 |  |  | COc1ccc(/C=C/C(=O)Nc2ccc(C(=O)O)cc2)cc1OC [Analogue 14, (E)-4-[[3-(3,4-Dimethoxyphenyl)-1-oxo-2-propenyl]amino]benzoic acid] |  |  | <FT11 | inhibition at 100 µM (rat mesangial cell line [1]): ~30%
19 |  |  | CCC#CCOc1cc(/C=C/C(=O)Nc2ccccc2C(=O)O)ccc1OC [Analogue 19] |  |  | >FT11 | Mesangial Cell Assay TGF-β % reduction of TGF-β stimulation_proline inc. (rat mesangial cell line [1]; @ 10 μM): ~80% @ 10; Mesangial Cell Assay TGF-β % reduction of TGF-β stimulation_proline inc. (rat mesangial cell line [1]; @ 30 μM): 100% @ 30
20 |  | 245 to 251 | COc1cc(/C=C/C(=O)Nc2ccccc2C(=O)O)ccc1OCc1cccnc1 [Analogue 49, (E)-2-[[3-(3-Methoxy-4-(pyridin-3-ylmethoxy)phenyl)-1-oxo-2-propenyl]amino]benzoic acid] |  |  |  | 
21 |  | 209 to 211 | COc1ccc(/C=C/C(=O)Nc2ccccc2C(=O)O)cn1 [Analogue 46, (E)-2-[[3-(6-Methoxypyridin-3-yl)-1-oxo-2-propenyl]amino]benzoic acid] |  |  | <<FT11 | 
22 |  |  | COc1ccc(/C=C/C(=O)Nc2ccccc2C(=O)O)cc1 [Analogue 3, (E)-2-[[3-(4-Methoxyphenyl)-1-oxo-2-propenyl]amino]benzoic acid] |  |  | <<T | 
23 | dead |  | CC#CCOc1ccc(/C=C/C(=O)Nc2ccccc2C(=O)O)cc1OC [Analogue 22, (E)-2-[[3-(4-(But-2-ynyloxy)-3-methoxyphenyl)-1-oxo-2-propenyl]amino]benzoic acid] | 56 | ~70 | =FT11 | inhibition at 3 µM (rat mesangial cell line [1]): ~37%
24 |  | 137 | COc1ccc(CCC(=O)Nc2ccccc2C(=O)O)cc1OC [Analogue 10, 2-[[3-(3,4-Dimethoxyphenyl)-1-oxopropyl]amino]benzoic acid] |  |  | <<T | 
25 | sparse @ 30 |  | C#CCNC(=O)c1ccccc1NC(=O)/C=C/c1ccc(OC)c(OC)c1 [Analogue 15, (E)-2-[[3-(3,4-Dimethoxyphenyl)-1-oxo-2-propenyl]amino]-N-propargylbenzamide] | ~24 | 36 | <FT11 | inhibition at 100 µM (rat mesangial cell line [1]): 75%; Effect on mesangial cell appearance (rat mesangial cell line [2]; @ 30 μM): sparse @ 30

Row | SMILES | Effect on mesangial cell appearance (rat mesangial cell line [2]; @ 100 μM) | melting point [°C] | inhibition at 10 µM (rat mesangial cell line [1]; @ 10 μM) [%] | inhibition at 30 µM (rat mesangial cell line [1]; @ 30 μM) [%] | Collagen synthesis (rat mesangial cell line [1]) | further results
26 | CCC(CC)Oc1ccc(/C=C/C(=O)Nc2ccccc2C(=O)O)cc1OC [Analogue 45, (E)-2-[[3-(3-Methoxy-4-(pent-3-yloxy)phenyl)-1-oxo-2-propenyl]amino]benzoic acid] | Cells damaged | 82 to 85 | 80 | 142 | >FT11 | 
